# Like-named read-outs stand apart in the source and are kept apart here.
# Tests used:
# [1] = tested on: normal human epidermal keratinocytes; assay: Ratiometric fura-2 live-cell calcium imaging of keratinocytes; format: cell-based; settings: responders F340:F380 increase ≧20%
# Experimental: (§1) Normal human keratinocytes were isolated from human foreskins by undergoing two enzymatic dissociation steps, first in dispase then in trypsin. Cells were cultured in EpiLife supplemented with human keratinocyte growth supplement (HKGS; Invitrogen). For all experiments with undifferentiated cells, keratinocytes were harvested or images at ˜75% confluency. Differentiation was induced by adding CaCl2 to the EpiLife media to reach a final [Ca2+] of 1.2 mM. Cells were typically cultured for 3 days under differentiation conditions before they were assayed. Keratinocytes were cultured for <5 passages. Purified Camphor (CAS #76-22-2), 2-APB (Tocris) or vehicle (1% EtOH)-containing media were used as indicated.
# Human keratinocytes and SCC cells were washed in Ringer's solution (in mM: NaCl 140, KCl 5, D-glucose 10, HEPES 10, CaCl2 2, MgCl2 2, pH 7.2) and loaded with 5 μM fura-2AM and 1 μM pluronic (Invitrogen) for 30 minutes in the dark. During live-cell imaging, saturating concentrations of TRP agonists (10 mM Camphor, 100 μM 2-APB 1 μM Capsaicin, 300 μM Mustard oil or 3 μM 4αPDD) in Ringer's were used. Cells were imaged for 20 s to establish a baseline and then acutely treated with each agonist for 60 seconds. Imaging was performed on an Olympus IX81 microscope with a 20× (NA 0.17) objective and a Hamamatsu ORCA-R2 camera. 340- and 380-nm excitation and 540-nm emission filters were used to capture fura-2 fluorescence. Data are expressed as a ratio of fluorescent signals (340/380). All data acquisition was performed in MetaFluor. Data analysis was performed with custom algorithms in IgorPro. Cells with baseline levels ±2 SD above the mean were excluded from analysis as unhealthy. Responders were designated as cells whose 340/380 ratio was ≧20% above baseline.
# TRP channels are selectively activated by endogenous and exogenous ligands at micromolar to millimolar concentrations. Since TRP channel activity increases over this range to allow graded Ca^2+ influx, receptor activity levels can be monitored by live-cell Ca^2+ imaging. A ratiometric calcium indicator (Fura-2) was employed to determine whether a panel of TRP-channel agonists elicited cytoplasmic calcium increases in human epidermal keratinocytes. (FIG. 1A-1E, FIG. 2A-2B, and Table 3).
# Normal human keratinocytes were cultured in low-calcium media to promote proliferation or in 1.2-mM calcium media to induce differentiation. For live-cell imaging, keratinocytes were then washed and bathed in Ringer's solution containing 2 mM calcium so that calcium signals could be directly compared between cell populations.
# In keratinocytes, increased intracellular calcium stimulates the terminal differentiation process. To determine whether camphor oil and its abundant constituents are directly bioactive on epithelial keratinocytes, a ratiometric Ca2+ indictor (Fura-2) was employed to test whether a panel of terpenes elicited cytoplasmic Ca2+ increases in undifferentiated human epidermal keratinocytes (FIG. 19A-19C). Keratinocytes were cultured according to our standard methods. For live-cell imaging, keratinocytes were bathed in Ringer's solution containing 2 mM Ca2+.
# human keratinocytes = settings: 50 μM, 7 days
# Experimental: (§2) Organotypic human skin cultures and primary SCC lines were isolated from human SCCs and cultured as previously described (Bachelor et al., 2011). In brief, human fibroblasts were seeded in a collagen matrix on a 70 μm filter insert and incubated at 37° C. for 5-7 days. Human keratinocytes or SCC cells were then seeded on the apical surface of the fibroblast-collagen matrix and cultured for 2 days submerged in media to allow monolayer formation. The media was then removed from the apical surface (raising), exposing the keratinocytes or SCC cells to air. The cultures were maintained in this fashion for up to 14 days, and the media to the fibroblasts below was changed every 2-3 days. At the time of raising, 50 μM 2-APB or vehicle (1% EtOH) was added to the media.
# Sections were fixed in 4% paraformaldehyde, paraffin embedded and sectioned at 8 μm. Hematoxylin and Eosin (H&E) stained sections were imaged with a bright field microscope equipped with a 10× (0.3 NA) and 20× (0.4 NA) objectives and an Axiocam color CCD camera (Zeiss AxioObserver.Z1). Epidermal thickness was assessed by measuring the nucleated layers with ImageJ software (NIH ImageJ). Number of invading cells was determined by counting the number of round nuclei below the basement membrane per 10× field (fibroblast nuclei are flatten and were excluded). […] Six random frames per section were quantified.
# SCC-73 cells = settings: 50 μM, 14 days
# Experimental: as §2
# (§3) Sections were fixed in 4% paraformaldehyde, paraffin embedded and sectioned at 8 μm. Hematoxylin and Eosin (H&E) stained sections were imaged with a bright field microscope equipped with a 10× (0.3 NA) and 20× (0.4 NA) objectives and an Axiocam color CCD camera (Zeiss AxioObserver.Z1). Epidermal thickness was assessed by measuring the nucleated layers with ImageJ software (NIH ImageJ). Number of invading cells was determined by counting the number of round nuclei below the basement membrane per 10× field (fibroblast nuclei are flatten and were excluded). Four non-serial paraffin sections per experiment were examined. Six random frames per section were quantified.
# (§4) As TRP-channels are expressed in human SCC keratinocytes and TRP agonists arrest keratinocyte proliferation, it was reasoned that TRP agonists might be candidates for SCC-targeted therapy. To test this notion, organotypic human skin cultures were seeded with SCC cells.
# SCC-39 cells = settings: 50 μM, 14 days
# Experimental: as §2, §3, §4
# SCC-13 cells = settings: 50 μM, 14 days
# Experimental: as §2, §3, §4
# TRPC1 = TRPC1 (Homo sapiens, UniProt P48995); settings: cited from earlier work
# [2] = tested on: normal human keratinocytes; assay: Keratinocyte cell counts (DAPI), morphology and EdU proliferation assay after 24 h treatment; settings: 24 hours
# Experimental: as §1
# Cells were treated with 2-APB or camphor for 24 hours at 37° C., exposed to EdU for 45 min, fixed and stained with DAPI for cell counting. EdU Click-It assays (Invitrogen) were used to assess cell-cycle entry. The cells were then fixed and stained with DAPI. Three fields per well were assayed via a 20× objective and there were 4 wells per treatment in each experiment. EdU=5-ethynyl-2′-deoxyuridine.
# As Ca^2+ triggers the commitment switch from proliferation to differentiation in keratinocytes, it was reasoned that increasing intracellular calcium by incubating keratinocytes in TRP agonists might be sufficient to induce this cell-fate switch in low-calcium growth media. To test this hypothesis, normal human keratinocytes were cultured for 24 hours under low-Ca^2+ conditions in the presence of low (12.5 μM), half-maximal (50 μM) and saturating (100 μM) concentrations of 2-APB (FIG. 3A) or camphor (0-8 mM) (FIG. 3E). These TRP agonists were chosen because they reliably elicited intracellular calcium signaling in normal human keratinocytes (FIG. 1A-1E).
# As camphor can activate both TRPV3 and TRPV1 channels, these experiments were repeated in the presence of a specific TRPV1 antagonist, AMG-9810 (Gavva et al., 2005).
# ORAI1 = ORAI1 (Homo sapiens, UniProt Q96D31); settings: Inhibition; cited from earlier work
# [3] = tested on: keratinocyte differentiation genes (LOR, FLG, IVL, TGM3); settings: 50 μM, 24 hours
# Source text: RNA was isolated using RNeasy Kit (Qiagen) and reversed transcribed. Four technical replicates were run for each primer set and cDNA sample using SYBR Green (Applied Biosystems) for quantitative readout. Complementary DNA was synthesized with oligo-dT primers and SuperScript III (Invitrogen). Primers were generated in Primer3. Primer pairs were optimized for qPCR and validated in control specimens. […] Melting curves were generated for all products to confirm a single amplicon for each product. To determine gene expression in each sample, cycle thresholds (CT) of the gene of interest were normalized to the reference gene GAPDH (ΔCT). Fold change was determined using the ΔΔCT method where vehicle or growth conditions were used as the calibrator (ΔΔCT=[(CT(target gene)−CT(reference gene)]−[CT(calibrator)]−CT(reference gene)]. All gene amplifications were performed in quadruplicate.
# TRPV3 = settings: Activation, cited from earlier work
# Sequence of TRPC1 (P48995 whole entry, species assumed): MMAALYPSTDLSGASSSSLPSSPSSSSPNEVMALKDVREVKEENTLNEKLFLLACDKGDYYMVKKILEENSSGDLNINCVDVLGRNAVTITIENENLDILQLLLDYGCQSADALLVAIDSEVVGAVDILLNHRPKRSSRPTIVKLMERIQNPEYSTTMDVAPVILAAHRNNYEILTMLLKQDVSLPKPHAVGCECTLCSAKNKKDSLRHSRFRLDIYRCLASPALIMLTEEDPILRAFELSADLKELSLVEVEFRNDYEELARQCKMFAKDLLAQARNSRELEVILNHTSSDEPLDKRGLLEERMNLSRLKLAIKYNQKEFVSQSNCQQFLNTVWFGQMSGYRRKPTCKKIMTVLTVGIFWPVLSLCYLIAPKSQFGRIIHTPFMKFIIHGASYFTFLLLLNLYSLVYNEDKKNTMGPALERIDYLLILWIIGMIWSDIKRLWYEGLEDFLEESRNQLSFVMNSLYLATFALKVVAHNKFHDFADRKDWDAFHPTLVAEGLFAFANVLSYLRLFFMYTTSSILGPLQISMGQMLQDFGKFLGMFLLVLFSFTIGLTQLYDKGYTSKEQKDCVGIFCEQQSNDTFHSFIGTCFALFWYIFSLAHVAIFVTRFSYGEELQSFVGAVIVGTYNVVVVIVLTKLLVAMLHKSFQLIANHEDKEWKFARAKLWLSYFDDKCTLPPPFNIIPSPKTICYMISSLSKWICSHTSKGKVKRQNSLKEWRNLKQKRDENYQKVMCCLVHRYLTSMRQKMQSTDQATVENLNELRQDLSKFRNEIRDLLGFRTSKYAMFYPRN
# Sequence of ORAI1 (Q96D31 whole entry, species assumed): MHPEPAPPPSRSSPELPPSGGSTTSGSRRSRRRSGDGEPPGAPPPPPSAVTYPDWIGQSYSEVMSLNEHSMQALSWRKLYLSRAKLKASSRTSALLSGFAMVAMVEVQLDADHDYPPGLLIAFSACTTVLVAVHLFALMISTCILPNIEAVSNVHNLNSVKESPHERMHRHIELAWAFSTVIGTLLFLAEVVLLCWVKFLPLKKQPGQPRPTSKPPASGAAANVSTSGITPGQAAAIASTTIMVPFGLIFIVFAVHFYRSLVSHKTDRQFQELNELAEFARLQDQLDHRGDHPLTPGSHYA
smiles,measurement,setting,value
"NCCOB(c1ccccc1)c1ccccc1 [2-APB, 2-aminoethoxydiphenyl borate]",% Responders (differentiated) Mean ± SEM,"[1]; differentiated in 1.2 mM Ca2+, 4αPDD 3 μM, camphor 10 mM, 2-APB 100 μM",13.0 ± 7.2%
same,% Responders (undifferentiated) Mean ± SEM or SD,"[1]; growth conditions, saturating agonist (4αPDD 3 μM, camphor 10 mM, 2-APB 100 μM, capsaicin 1 μM, mustard oil 300 μM), SD for capsaicin and mustard oil",2.5 ± 0.9%
same,nucleated epidermal layers,human keratinocytes,one-third reduction
same,invasive nature and growth of tumor cells,SCC-73 cells,dramatically reduced
same,tumor thickness,SCC-73 cells,reduced tumor thickness
same,inhibition of cell invasion versus vehicle-treated cultures,SCC-39 cells,> 93%
same,reduction of tumor formation above the dermis,SCC-39 cells,> 37%
same,tumor thickness,SCC-39 cells,reduced tumor thickness
same,reduction of tumor formation above the dermis,SCC-13 cells,> 37%
same,tumor thickness,SCC-13 cells,reduced tumor thickness
same,Effective concentration Range,TRPC1; Activation,Range = 5-10 μM
same,Effective concentration Range,TRPC1; Inhibition,Range = 50-100 μM
same,EdU incorporation,[2]; 12.5 μM,significant increased
same,cell population compared with vehicle-treated controls,"[2]; 12.5 μM, low-Ca2+, one set of primary keratinocytes",325+/−5%
same,EdU incorporation (cell-cycle arrest),[2]; 50 μM,completely inhibited
same,cell number,[2]; 50 μM,slight reduction
same,keratinocyte morphology and cell numbers (cytotoxicity),[2]; 100 μM,necrotic morphological changes and a loss of cell numbers
same,keratinocyte morphology,[2]; 12.5 or 50 μM,indistinguishable from vehicle-treated cells
same,concentration that arrests proliferation without inducing necrotic changes,[2],50 µM
same,Effective concentration Range,ORAI1,Range = 5-50 μM
same,involucrin (IVL) expression,[3],little change
same,transglutaminase 3 (TGM3) expression,[3],little change
same,FLG transcript level induction versus vehicle,[3]; low-calcium growth media,more than 15 fold
same,LOR transcript level induction versus vehicle,[3]; low-calcium growth media,more than 15 fold
same,Effective concentration Range,TRPV3,Range = 3.2-320 μM
same,EC50,TRPV3; read-out: Effective concentration EC50,28 µM

# Reference: patent US20160051493A1, “METHODS OF TREATMENT OF KERATINOCYTE-DERIVED LESIONS” (THE TRUSTEES OF COLUMBIA UNIVERSITY IN THE CITY OF NEW YORK, priority 2012, published 2016)
